Assay results taken from PMC7538598 (Scientific Reports, 2020).

Experiments:
[1] = target: T1, α1-GFP GlyR (Homo sapiens, UniProt P23415); assay: MST of α1-GFP GlyR SMA-copolymer nanodiscs (total solubilized membranes) from X. laevis oocytes; type: binding; settings: mean ± SEM, read-out: cEC50 (MST)
T1 construct: made in house; host or cells: Xenopus laevis oocytes injected with cRNA; total solubilized membranes in SMA nanodiscs
T1 sequence (P23415 29-457): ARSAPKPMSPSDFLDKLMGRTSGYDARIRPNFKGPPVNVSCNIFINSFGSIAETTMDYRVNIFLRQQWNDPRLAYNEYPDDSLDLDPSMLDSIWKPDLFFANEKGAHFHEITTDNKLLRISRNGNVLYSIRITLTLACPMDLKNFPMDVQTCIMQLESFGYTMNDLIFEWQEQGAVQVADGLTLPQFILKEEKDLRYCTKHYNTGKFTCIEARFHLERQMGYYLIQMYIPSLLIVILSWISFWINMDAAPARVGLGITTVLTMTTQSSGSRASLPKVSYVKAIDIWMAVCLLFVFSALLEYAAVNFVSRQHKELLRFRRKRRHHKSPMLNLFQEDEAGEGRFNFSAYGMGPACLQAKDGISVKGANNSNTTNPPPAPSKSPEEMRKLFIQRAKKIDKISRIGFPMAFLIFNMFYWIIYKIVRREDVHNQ
Protocol: cRNA was synthesized using the AmpliCap-Max T7 High Yield Message Maker Kit (Cellscript, Madison, WI, USA). Therefore GFP-GlyR α1 in pCDNA3.1(+) was linearized with NotI. Oozytes were surgically taken from female X. laevis after anesthesia with 0.1% Tricaine in water. For SMA-copolymer solubilization, 300–400 oocytes were injected with 50 ng in a volume of 50.6 nl of cRNA. After injection the oocytes were incubated in ND-96 solution (96 mM NaCl, 2 mM KCl, 1 mM CaCl2, 1 mM MgCl2, 5 mM HEPES, pH 7.4) at 18 °C for 1–2 days.

[2] = target: T2, α1 GlyR (Homo sapiens, UniProt P23415); assay: Two-electrode voltage-clamp whole-cell current recordings in X. laevis oocytes expressing α1 GlyR; type: cell-based
T2 construct: GFP (N); expressed in transfected cells; host or cells: Xenopus laevis oocytes (cRNA injection)
T2 sequence (P23415 29-457): T1 sequence (P23415 29-457)

[3] = test system: GlyR; settings: full agonist, maximal current responses; cited from earlier work

Row | Compound | EC50 [1] | EC50 ([2]; α1 GlyR expressed in X. laevis oocytes, clamped at −70 mV, mean ± SEM, read-out: aEC50 (electrophysiology)) | maximal current compared to glycine ([2]; α1 GlyR in X. laevis oocytes, normalized to maximum glycine currents, n = 3) | opening times in single-channel recordings [3]
1 | NCCS(=O)(=O)O [taurine] | 474 ± 66.1 µM | 843 ± 16 µM | 61% | 
2 | NCC(=O)O [glycine] |  |  |  | 95–98%
